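GI50 marks 50% less growth. TGI: concentration producing complete growth inhibition.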
Assays:
Assay in all cases: NCI anticancer screen, dose series, 384-well format
HL-60(TB) leukemia = tested on: HL-60(TB) leukemia
U251 glioblastoma = tested on: U251 glioblastoma
HOP-62 NSCLC = tested on: HOP-62 NSCLC
NCI-H322M lung = tested on: NCI-H322M lung
MDA-MB-468 breast = tested on: MDA-MB-468 breast
UACC-257 melanoma = tested on: UACC-257 melanoma
K-562 leukemia = tested on: K-562 leukemia
OVCAR-4 ovarian = tested on: OVCAR-4 ovarian
NCI-H23 lung = tested on: NCI-H23 lung
NCI/ADR-RES ovarian = tested on: NCI/ADR-RES ovarian
M14 melanoma = tested on: M14 melanoma
UACC-62 melanoma = tested on: UACC-62 melanoma
ACHN renal = tested on: ACHN renal
CAKI-1 renal = tested on: CAKI-1 renal
SK-MEL-2 melanoma = tested on: SK-MEL-2 melanoma
RPMI-8226 leukemia = tested on: RPMI-8226 leukemia
OVCAR-3 ovarian = tested on: OVCAR-3 ovarian
NCI-H460 NSCLC = tested on: NCI-H460 NSCLC
MDA-MB-435 melanoma = tested on: MDA-MB-435 melanoma
COLO 205 colon = tested on: COLO 205 colon
SK-MEL-28 melanoma = tested on: SK-MEL-28 melanoma
MDA-MB-231 breast = tested on: MDA-MB-231 breast
T-47D breast = tested on: T-47D breast
SF-295 CNS = tested on: SF-295 CNS
HCT-116 colon = tested on: HCT-116 colon
A549 NSCLC = tested on: A549 NSCLC
SF-539 CNS = tested on: SF-539 CNS
UO-31 renal = tested on: UO-31 renal
MALME-3M melanoma = tested on: MALME-3M melanoma
BT-549 breast = tested on: BT-549 breast
HS 578T breast = tested on: HS 578T breast
CCRF-CEM leukemia = tested on: CCRF-CEM leukemia
OVCAR-5 ovarian = tested on: OVCAR-5 ovarian
SNB-75 CNS = tested on: SNB-75 CNS
NCI-H522 lung = tested on: NCI-H522 lung
SF-268 CNS = tested on: SF-268 CNS
IGROV1 ovarian = tested on: IGROV1 ovarian
SW-620 colon = tested on: SW-620 colon
HOP-92 NSCLC = tested on: HOP-92 NSCLC
RXF 393 renal = tested on: RXF 393 renal
SK-OV-3 ovarian = tested on: SK-OV-3 ovarian
OVCAR-8 ovarian = tested on: OVCAR-8 ovarian
TK-10 renal = tested on: TK-10 renal
MOLT-4 leukemia = tested on: MOLT-4 leukemia
SK-MEL-5 melanoma = tested on: SK-MEL-5 melanoma
SN12C renal = tested on: SN12C renal
786-0 renal = tested on: 786-0 renal
HCC-2998 colon = tested on: HCC-2998 colon
A498 renal = tested on: A498 renal
KM12 colon = tested on: KM12 colon
PC-3 prostate = tested on: PC-3 prostate
DU-145 prostate = tested on: DU-145 prostate
LOX IMVI melanoma = tested on: LOX IMVI melanoma
HT29 colon = tested on: HT29 colon
EKVX NSCLC = tested on: EKVX NSCLC
SNB-19 CNS = tested on: SNB-19 CNS
MCF7 breast = tested on: MCF7 breast
NCI-H226 lung = tested on: NCI-H226 lung
HCT-15 colon = tested on: HCT-15 colon

Structure (SMILES): Cc1c(NC(=O)c2cc(C(N)=O)nc3cc(F)ccc23)c(C(F)(F)F)nn1Cc1ccc(C#N)cc1
- GI50 (HL-60(TB) leukemia): 1060 nM
- TGI (HL-60(TB) leukemia): 2380 nM
- GI50 (U251 glioblastoma): 974 nM
- TGI (U251 glioblastoma): 12900 nM
- GI50 (HOP-62 NSCLC): 3300 nM
- TGI (HOP-62 NSCLC): 16500 nM
- GI50 (NCI-H322M lung): 1710 nM
- TGI (NCI-H322M lung): 12900 nM
- GI50 (MDA-MB-468 breast): 2660 nM
- TGI (MDA-MB-468 breast): 13400 nM
- GI50 (UACC-257 melanoma): 33400 nM
- TGI (UACC-257 melanoma): > 100000 nM
- GI50 (K-562 leukemia): 5920 nM
- TGI (K-562 leukemia): 22300 nM
- GI50 (OVCAR-4 ovarian): 80.3 nM
- TGI (OVCAR-4 ovarian): 1700 nM
- GI50 (NCI-H23 lung): 2930 nM
- TGI (NCI-H23 lung): 16500 nM
- GI50 (NCI/ADR-RES ovarian): 1350 nM
- TGI (NCI/ADR-RES ovarian): 2870 nM
- GI50 (M14 melanoma): 11100 nM
- TGI (M14 melanoma): 24900 nM
- GI50 (UACC-62 melanoma): 2780 nM
- TGI (UACC-62 melanoma): 15400 nM
- GI50 (ACHN renal): 2540 nM
- TGI (ACHN renal): 27100 nM
- GI50 (CAKI-1 renal): 8330 nM
- TGI (CAKI-1 renal): 37400 nM
- GI50 (SK-MEL-2 melanoma): 17400 nM
- TGI (SK-MEL-2 melanoma): 35500 nM
- TGI (RPMI-8226 leukemia): 163 nM
- GI50 (OVCAR-3 ovarian): 50.9 nM
- TGI (OVCAR-3 ovarian): 1190 nM
- GI50 (NCI-H460 NSCLC): 2870 nM
- TGI (NCI-H460 NSCLC): 16300 nM
- GI50 (MDA-MB-435 melanoma): 17100 nM
- TGI (MDA-MB-435 melanoma): > 100000 nM
- GI50 (COLO 205 colon): 102 nM
- TGI (COLO 205 colon): 1330 nM
- GI50 (SK-MEL-28 melanoma): 18300 nM
- TGI (SK-MEL-28 melanoma): > 100000 nM
- GI50 (MDA-MB-231 breast): 5690 nM
- TGI (MDA-MB-231 breast): 41600 nM
- GI50 (T-47D breast): 151 nM
- TGI (T-47D breast): 11500 nM
- GI50 (SF-295 CNS): 1070 nM
- TGI (SF-295 CNS): 5500 nM
- GI50 (HCT-116 colon): 1970 nM
- TGI (HCT-116 colon): 12200 nM
- GI50 (A549 NSCLC): 2000 nM
- TGI (A549 NSCLC): 15600 nM
- GI50 (SF-539 CNS): 5050 nM
- TGI (SF-539 CNS): 27200 nM
- GI50 (UO-31 renal): 208 nM
- TGI (UO-31 renal): 9830 nM
- GI50 (MALME-3M melanoma): 2940 nM
- TGI (MALME-3M melanoma): 16400 nM
- GI50 (BT-549 breast): 605 nM
- TGI (BT-549 breast): 12100 nM
- GI50 (HS 578T breast): 22 nM
- TGI (HS 578T breast): 123 nM
- GI50 (CCRF-CEM leukemia): 33.7 nM
- TGI (CCRF-CEM leukemia): 10300 nM
- GI50 (OVCAR-5 ovarian): 2810 nM
- TGI (OVCAR-5 ovarian): 9740 nM
- GI50 (SNB-75 CNS): 12200 nM
- TGI (SNB-75 CNS): 27000 nM
- GI50 (NCI-H522 lung): 4540 nM
- TGI (NCI-H522 lung): 27800 nM
- GI50 (SF-268 CNS): 6040 nM
- TGI (SF-268 CNS): 28200 nM
- GI50 (IGROV1 ovarian): 1690 nM
- TGI (IGROV1 ovarian): 8200 nM
- GI50 (SW-620 colon): 4760 nM
- TGI (SW-620 colon): 33900 nM
- GI50 (HOP-92 NSCLC): 633 nM
- TGI (HOP-92 NSCLC): 7030 nM
- GI50 (RXF 393 renal): 693 nM
- TGI (RXF 393 renal): 5320 nM
- GI50 (SK-OV-3 ovarian): 132 nM
- TGI (SK-OV-3 ovarian): 313 nM
- GI50 (OVCAR-8 ovarian): 1620 nM
- TGI (OVCAR-8 ovarian): 5830 nM
- GI50 (TK-10 renal): 1370 nM
- TGI (TK-10 renal): 5060 nM
- GI50 (MOLT-4 leukemia): 110 nM
- TGI (MOLT-4 leukemia): 2020 nM
- GI50 (SK-MEL-5 melanoma): 12300 nM
- TGI (SK-MEL-5 melanoma): 54800 nM
- GI50 (SN12C renal): 237 nM
- TGI (SN12C renal): 12100 nM
- GI50 ([…]-0 renal): 319 nM
- TGI (786-0 renal): 12300 nM
- GI50 (HCC-2998 colon): 95.6 nM
- TGI (HCC-2998 colon): 1690 nM
- GI50 (A498 renal): 742 nM
- TGI (A498 renal): 15400 nM
- GI50 (KM12 colon): 142 nM
- TGI (KM12 colon): 1900 nM
- GI50 (PC-3 prostate): 53.2 nM
- TGI (PC-3 prostate): 276 nM
- GI50 (DU-145 prostate): 75.2 nM
- TGI (DU-145 prostate): 2430 nM
- GI50 (LOX IMVI melanoma): 1670 nM
- TGI (LOX IMVI melanoma): 12800 nM
- GI50 (HT29 colon): 134 nM
- TGI (HT29 colon): 1310 nM
- GI50 (EKVX NSCLC): 16100 nM
- TGI (EKVX NSCLC): 66300 nM
- GI50 (SNB-19 CNS): 1810 nM
- TGI (SNB-19 CNS): 12300 nM
- GI50 (MCF7 breast): 198 nM
- TGI (MCF7 breast): 1220 nM
- GI50 (NCI-H226 lung): 84.2 nM
- TGI (NCI-H226 lung): 8100 nM
- GI50 (HCT-15 colon): 14100 nM
- TGI (HCT-15 colon): > 100000 nM

Structure (SMILES): CCc1c2c(nc3ccc(O)cc13)-c1cc3c(c(=O)n1C2)COC(=O)[C@]3(O)CC
- GI50 (NCI-H322M lung): 22.3 nM
- TGI (NCI-H322M lung): 120 nM
- GI50 (UACC-257 melanoma): 11.8 nM
- TGI (UACC-257 melanoma): 285 nM
- TGI (K-562 leukemia): 292 nM
- GI50 (OVCAR-4 ovarian): 47.8 nM
- TGI (OVCAR-4 ovarian): 224 nM
- TGI (NCI-H23 lung): 13.3 nM
- TGI (NCI/ADR-RES ovarian): 30.3 nM
- TGI (CAKI-1 renal): 92.6 nM
- TGI (RPMI-8226 leukemia): 61.6 nM
- TGI (OVCAR-3 ovarian): 36.4 nM
- TGI (NCI-H460 NSCLC): 15.6 nM
- GI50 (MDA-MB-435 melanoma): 33.1 nM
- TGI (MDA-MB-435 melanoma): 266 nM
- TGI (COLO 205 colon): 1060 nM
- TGI (SK-MEL-28 melanoma): 156 nM
- GI50 (MDA-MB-231 breast): 128 nM
- TGI (MDA-MB-231 breast): 3800 nM
- TGI (T-47D breast): 15.5 nM
- TGI (HCT-116 colon): 114 nM
- GI50 (A549 NSCLC): 34.4 nM
- TGI (A549 NSCLC): 1060 nM
- TGI (UO-31 renal): 49.5 nM
- GI50 (MALME-3M melanoma): 13.1 nM
- TGI (MALME-3M melanoma): 297 nM
- TGI (BT-549 breast): 26.4 nM
- GI50 (HS 578T breast): 140 nM
- TGI (HS 578T breast): 1930 nM
- GI50 (OVCAR-5 ovarian): 39.8 nM
- TGI (OVCAR-5 ovarian): 249 nM
- TGI (SNB-75 CNS): 14.1 nM
- TGI (NCI-H522 lung): 31.6 nM
- GI50 (IGROV1 ovarian): 24.7 nM
- TGI (IGROV1 ovarian): 1050 nM
- TGI (SW-620 colon): 239 nM
- TGI (HOP-92 NSCLC): 64.4 nM
- TGI (RXF 393 renal): 26.4 nM
- TGI (SK-OV-3 ovarian): 17.5 nM
- TGI (OVCAR-8 ovarian): 47.8 nM
- GI50 (TK-10 renal): 35.1 nM
- TGI (TK-10 renal): 919 nM
- TGI (SK-MEL-5 melanoma): 16.9 nM
- TGI (786-0 renal): 12.5 nM
- TGI (HCC-2998 colon): 75.4 nM
- TGI (A498 renal): 129 nM
- GI50 (KM12 colon): 20.5 nM
- TGI (KM12 colon): 153 nM
- GI50 (PC-3 prostate): 115 nM
- TGI (PC-3 prostate): 4660 nM
- TGI (LOX IMVI melanoma): 23.8 nM
- GI50 (EKVX NSCLC): 89.7 nM
- TGI (EKVX NSCLC): 2630 nM
- TGI (SNB-19 CNS): 16.3 nM
- TGI (NCI-H226 lung): 135 nM
- TGI (HCT-15 colon): 137 nM

Source: PubChem BioAssay (NCI)
